{"source": "patent US20180215734A1", "about": "“PYRIMIDINE DERIVATIVES AS KINASE INHIBITORS AND THEIR THERAPEUTICAL APPLICATIONS” (NantBioScience, Inc., priority 2016, published 2018)", "key": {"[1]": {"tested_on": "KG1a", "assay": "Inhibition of proliferation (CellTiterblue, 72 hr), KG1a", "format": "cell-based, human", "description": "(§1) A number of studies were performed to analyze the consequences of tyrosine kinase inhibition in cell lines. To do this, 1000 cells are seeded in 27 μl/well in 384-well microplates, which are then placed in a humidified CO2 incubator at 37° C. overnight. The next day, 3 μl/well of 10× concentrated drug is added and the plates are returned to the incubator for 72 hr. After 72 hr incubation, plates are removed and 6 μl/well CellTiterblue (Promega) viability reagent is added. Plates are returned to the incubator for 3 hrs, after which fluorescence measurements are read on the Victor X3 plate reader (Perkin Elmer). Data are analyzed using Excel (Microsoft), and GI50 values are determined using Prism (Graphpad)."}, "[2]": {"tested_on": "Kato III", "assay": "Inhibition of proliferation (CellTiterblue, 72 hr), Kato III", "format": "cell-based", "conditions": "Homo sapiens, KATO III, 72 h", "description": "as §1"}, "[3]": {"tested_on": "RT112", "assay": "Inhibition of proliferation (CellTiterblue, 72 hr), RT112", "format": "cell-based", "conditions": "Homo sapiens, RT-112, 72 h", "description": "as §1"}, "[4]": {"tested_on": "TG1a Human AML Xenograft", "assay": "Antitumor efficacy on TG1a human AML xenograft", "format": "in vivo, mouse", "description": "In this Example the antitumor activity of compounds 14, 17, 19, 45, and 48 of the current invention are tested using an art-recognized xenograft model of AML. (“T/C” refers to the ratio of the tumor's size in treated animals versus the tumor size in control untreated animals. “BWC” refers to “body weight change”)."}, "[5]": {"molecular_target": "FGFR1(V561M)(h) (Homo sapiens, UniProt P11362, V561M)", "assay": "Kinase assay, FGFR1(V561M)(h)", "format": "biochemical", "description": "Kinase assay protocols well known to those of ordinary skill in the art were used. Specifically, the buffer composition was as follows: 20 mM MOPS, 1 mM EDTA, 0.01% Brij-35, 5% Glycerol, 0.1% β-mercaptoethanol, 1 mg/mL BSA. Test compounds were initially dissolved in DMSO at the desired concentration, then serially diluted to the kinase assay buffer. In a final reaction volume of 25 μL FGFR1(h) (5-10 mU) and KDR(h) (5-10 mU) are incubated with 8 mM MOPS pH 7.0, 0.2 mM EDTA, 200 μM LRRASLG (Kemptide), 10 mM magnesium acetate and [γ^33P-ATP]. The reaction was initiated by the addition of the MgATP mix. After incubation for 40 minutes at room temperature, the reaction was stopped by addition of 5 μL of a 3% phosphoric acid solution. Ten L of the reaction was then spotted onto a P30 filter mat and washed three times for 5 minutes in 50 mM phosphoric acid and once in methanol prior to drying and scintillation counting. Wells containing substrate but no kinase and wells containing a phosphopeptide control were used to set 0% and 100% phosphorylation value, respectively.\nOf all of the steps in developing a drug, the hardest is finding promising compounds. (See, e.g., Malo et al., “Statistical practice in high-throughput screening data analysis,” Nature Biotechnology, 2006, 24, 167-75.) Kinase inhibitors often also have an anti-proliferative effect. […]"}, "[6]": {"molecular_target": "FGFR2(h) (Homo sapiens, UniProt P21802)", "assay": "Kinase assay, FGFR2(h)", "format": "biochemical"}, "[7]": {"molecular_target": "ABL(h) (Homo sapiens, UniProt P00519)", "assay": "Kinase assay, ABL(h)", "format": "biochemical"}, "[8]": {"molecular_target": "ALK(h) (Homo sapiens, UniProt Q9UM73)", "assay": "Kinase assay, ALK(h)", "format": "biochemical"}, "[9]": {"molecular_target": "Axl(h) (Homo sapiens, UniProt P30530)", "sequence (P30530 26-894)": "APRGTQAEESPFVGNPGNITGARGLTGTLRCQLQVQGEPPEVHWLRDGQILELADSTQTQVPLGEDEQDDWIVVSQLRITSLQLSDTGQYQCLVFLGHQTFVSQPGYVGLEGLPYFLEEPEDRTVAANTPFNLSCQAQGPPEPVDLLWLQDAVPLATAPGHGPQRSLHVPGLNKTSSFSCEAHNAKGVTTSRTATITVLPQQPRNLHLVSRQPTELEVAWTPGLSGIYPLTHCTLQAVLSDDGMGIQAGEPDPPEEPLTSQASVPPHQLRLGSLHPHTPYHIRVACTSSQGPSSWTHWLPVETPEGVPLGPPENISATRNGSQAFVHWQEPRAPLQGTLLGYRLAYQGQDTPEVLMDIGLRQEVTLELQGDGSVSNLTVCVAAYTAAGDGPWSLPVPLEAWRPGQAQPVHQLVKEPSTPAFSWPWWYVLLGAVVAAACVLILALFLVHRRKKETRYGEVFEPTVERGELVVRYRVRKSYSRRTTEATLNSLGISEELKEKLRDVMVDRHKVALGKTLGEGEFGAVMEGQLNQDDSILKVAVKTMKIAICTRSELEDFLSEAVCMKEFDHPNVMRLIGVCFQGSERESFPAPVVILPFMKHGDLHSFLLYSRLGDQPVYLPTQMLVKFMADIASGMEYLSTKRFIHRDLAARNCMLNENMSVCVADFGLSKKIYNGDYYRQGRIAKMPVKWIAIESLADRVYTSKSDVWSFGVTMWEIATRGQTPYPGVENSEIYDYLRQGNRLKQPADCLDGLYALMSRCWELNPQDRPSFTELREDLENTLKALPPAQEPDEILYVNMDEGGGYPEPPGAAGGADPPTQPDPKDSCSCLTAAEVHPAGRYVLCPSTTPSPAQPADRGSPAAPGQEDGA", "assay": "Kinase assay, Axl(h)", "format": "biochemical"}, "[10]": {"molecular_target": "cSRC(h) (Homo sapiens, UniProt P12931)", "assay": "Kinase assay, cSRC(h)", "format": "biochemical"}, "[11]": {"molecular_target": "Flt3(h) (Homo sapiens, UniProt P36888)", "assay": "Kinase assay, Flt3(h)", "format": "biochemical"}, "[12]": {"molecular_target": "MEK1(h) (Homo sapiens, UniProt Q02750)", "sequence (Q02750 whole entry)": "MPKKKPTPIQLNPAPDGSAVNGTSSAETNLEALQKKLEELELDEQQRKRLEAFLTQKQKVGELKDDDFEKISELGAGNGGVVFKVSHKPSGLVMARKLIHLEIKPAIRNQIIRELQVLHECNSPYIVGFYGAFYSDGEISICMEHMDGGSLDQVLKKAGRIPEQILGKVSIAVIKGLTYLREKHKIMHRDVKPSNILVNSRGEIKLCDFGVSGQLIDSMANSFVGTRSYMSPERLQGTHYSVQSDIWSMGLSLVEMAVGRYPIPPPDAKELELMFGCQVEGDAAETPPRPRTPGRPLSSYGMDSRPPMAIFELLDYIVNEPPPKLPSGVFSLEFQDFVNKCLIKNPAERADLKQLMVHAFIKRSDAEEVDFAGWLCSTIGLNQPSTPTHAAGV", "assay": "Kinase assay, MEK1(h)", "format": "biochemical"}, "[13]": {"molecular_target": "Mer(h) (Homo sapiens, UniProt Q12866)", "sequence (Q12866 21-999)": "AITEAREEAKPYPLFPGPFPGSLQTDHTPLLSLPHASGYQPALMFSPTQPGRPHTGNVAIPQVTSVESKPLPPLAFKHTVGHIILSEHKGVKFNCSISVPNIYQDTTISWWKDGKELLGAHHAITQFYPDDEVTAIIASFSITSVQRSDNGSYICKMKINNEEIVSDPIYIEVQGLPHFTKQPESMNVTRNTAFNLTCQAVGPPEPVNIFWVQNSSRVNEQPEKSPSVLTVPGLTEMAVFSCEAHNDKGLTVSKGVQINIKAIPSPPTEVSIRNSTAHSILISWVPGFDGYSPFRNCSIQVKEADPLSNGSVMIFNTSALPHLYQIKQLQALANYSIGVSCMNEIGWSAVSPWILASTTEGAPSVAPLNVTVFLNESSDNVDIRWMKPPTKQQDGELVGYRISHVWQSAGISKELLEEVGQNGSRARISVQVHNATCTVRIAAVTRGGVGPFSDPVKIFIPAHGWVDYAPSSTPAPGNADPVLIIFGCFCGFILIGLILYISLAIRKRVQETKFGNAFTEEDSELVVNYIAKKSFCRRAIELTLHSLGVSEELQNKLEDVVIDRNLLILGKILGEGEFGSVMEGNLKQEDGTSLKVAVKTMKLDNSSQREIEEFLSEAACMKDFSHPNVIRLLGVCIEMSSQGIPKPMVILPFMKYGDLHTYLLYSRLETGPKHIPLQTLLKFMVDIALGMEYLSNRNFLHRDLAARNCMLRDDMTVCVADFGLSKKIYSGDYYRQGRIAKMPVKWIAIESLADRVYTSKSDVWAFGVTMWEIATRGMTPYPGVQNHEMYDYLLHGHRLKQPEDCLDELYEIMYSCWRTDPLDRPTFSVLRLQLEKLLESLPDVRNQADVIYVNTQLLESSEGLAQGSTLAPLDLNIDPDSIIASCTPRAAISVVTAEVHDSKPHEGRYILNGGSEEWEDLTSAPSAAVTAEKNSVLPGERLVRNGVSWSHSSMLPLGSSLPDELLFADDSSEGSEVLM", "assay": "Kinase assay, Mer(h)", "format": "biochemical"}, "[14]": {"molecular_target": "Met(h) (Homo sapiens, UniProt P08581)", "sequence (P08581 25-1390)": "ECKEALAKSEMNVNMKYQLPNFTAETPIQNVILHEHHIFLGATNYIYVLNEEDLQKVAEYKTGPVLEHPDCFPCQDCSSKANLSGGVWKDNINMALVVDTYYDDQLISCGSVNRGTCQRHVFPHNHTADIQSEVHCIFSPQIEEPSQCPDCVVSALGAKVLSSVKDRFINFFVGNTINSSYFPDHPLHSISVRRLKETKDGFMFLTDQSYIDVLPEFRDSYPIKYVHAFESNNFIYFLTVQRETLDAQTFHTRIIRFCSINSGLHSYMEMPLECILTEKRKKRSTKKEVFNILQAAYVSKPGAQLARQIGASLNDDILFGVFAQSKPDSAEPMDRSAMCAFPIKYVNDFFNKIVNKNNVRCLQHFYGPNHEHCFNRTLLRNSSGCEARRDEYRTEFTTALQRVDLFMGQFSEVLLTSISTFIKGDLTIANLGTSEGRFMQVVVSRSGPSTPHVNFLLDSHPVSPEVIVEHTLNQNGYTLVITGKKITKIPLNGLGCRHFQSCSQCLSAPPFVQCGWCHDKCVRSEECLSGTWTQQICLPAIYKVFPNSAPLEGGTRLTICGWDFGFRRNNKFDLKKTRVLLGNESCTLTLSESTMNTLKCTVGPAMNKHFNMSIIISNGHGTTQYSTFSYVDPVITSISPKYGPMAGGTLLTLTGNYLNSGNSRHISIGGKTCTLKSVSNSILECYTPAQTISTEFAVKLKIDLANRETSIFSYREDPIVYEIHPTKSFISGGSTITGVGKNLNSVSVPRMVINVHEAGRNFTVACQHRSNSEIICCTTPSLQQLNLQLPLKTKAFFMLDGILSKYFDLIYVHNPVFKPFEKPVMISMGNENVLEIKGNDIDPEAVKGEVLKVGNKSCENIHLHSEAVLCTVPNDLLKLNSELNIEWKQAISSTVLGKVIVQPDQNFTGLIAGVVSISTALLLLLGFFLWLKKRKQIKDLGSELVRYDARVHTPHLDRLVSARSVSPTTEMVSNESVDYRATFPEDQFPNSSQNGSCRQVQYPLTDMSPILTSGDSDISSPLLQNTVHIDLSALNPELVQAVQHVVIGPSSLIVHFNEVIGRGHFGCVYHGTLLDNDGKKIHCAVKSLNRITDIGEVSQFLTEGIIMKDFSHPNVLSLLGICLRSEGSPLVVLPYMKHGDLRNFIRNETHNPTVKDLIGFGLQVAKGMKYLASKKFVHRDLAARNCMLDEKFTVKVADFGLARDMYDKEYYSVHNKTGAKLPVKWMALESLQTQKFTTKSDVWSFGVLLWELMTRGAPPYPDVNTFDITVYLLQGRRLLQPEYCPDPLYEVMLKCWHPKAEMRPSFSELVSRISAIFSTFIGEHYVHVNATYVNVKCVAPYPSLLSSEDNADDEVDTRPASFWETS", "assay": "Kinase assay, Met(h)", "format": "biochemical"}, "[15]": {"molecular_target": "T1, FGFR1 (Homo sapiens, UniProt P11362)", "T1 construct": "expressed in transfected cells; host or cells: BaF3", "assay": "BaF3 cells engineered for expression of FGFR1", "format": "cell-based", "conditions": "read-out: IC5o(nM) FGFR1", "from_the_text": "(§2) In FIG. 1 these kinases are from the fibroblast growth factor receptor class of kinases (FGFR1-FGFR4). Compound 19 kinase inhibitory activity FGFR1-FGFR4 are also depicted in Table 5."}, "[16]": {"molecular_target": "T2, FGFR3 (Homo sapiens, UniProt P22607)", "T2 construct": "expressed in transfected cells; host or cells: BaF3", "T2 sequence (P22607 23-806, species assumed)": "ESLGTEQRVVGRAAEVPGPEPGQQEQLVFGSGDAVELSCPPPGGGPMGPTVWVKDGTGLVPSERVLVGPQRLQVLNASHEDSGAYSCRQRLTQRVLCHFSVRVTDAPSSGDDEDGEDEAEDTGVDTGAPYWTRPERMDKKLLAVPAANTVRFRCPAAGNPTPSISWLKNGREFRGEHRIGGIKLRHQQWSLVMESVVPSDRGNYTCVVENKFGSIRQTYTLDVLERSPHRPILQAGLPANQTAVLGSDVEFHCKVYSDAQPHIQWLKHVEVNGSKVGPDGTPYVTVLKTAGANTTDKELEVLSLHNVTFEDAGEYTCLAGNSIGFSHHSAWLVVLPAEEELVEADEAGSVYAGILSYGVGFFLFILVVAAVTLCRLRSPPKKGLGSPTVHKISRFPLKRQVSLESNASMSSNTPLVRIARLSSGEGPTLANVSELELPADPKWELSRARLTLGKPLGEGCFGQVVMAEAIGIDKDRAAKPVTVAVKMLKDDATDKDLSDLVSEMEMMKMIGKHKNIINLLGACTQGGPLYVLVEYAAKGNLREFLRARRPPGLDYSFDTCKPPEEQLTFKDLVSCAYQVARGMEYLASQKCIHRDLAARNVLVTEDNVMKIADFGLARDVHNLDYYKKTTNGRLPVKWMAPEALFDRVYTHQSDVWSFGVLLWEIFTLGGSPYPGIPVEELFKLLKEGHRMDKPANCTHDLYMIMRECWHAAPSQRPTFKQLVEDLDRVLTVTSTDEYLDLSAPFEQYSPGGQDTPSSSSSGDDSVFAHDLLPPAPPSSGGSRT", "assay": "BaF3 cells engineered for expression of FGFR3", "format": "cell-based", "conditions": "read-out: IC5o(nM) FGFR3", "from_the_text": "as §2"}, "[17]": {"assay": "Metabolic stability, human liver microsomes", "format": "in vitro ADME"}, "[18]": {"assay": "Metabolic stability, rat liver microsomes", "format": "in vitro ADME"}, "[19]": {"assay": "Metabolic stability, mouse liver microsomes", "format": "in vitro ADME"}, "[20]": {"molecular_target": "hERG (Homo sapiens, UniProt Q12809)", "assay": "Cardiovascular toxicity, hERG", "from_the_text": "(§3) Table 9 discloses toxicity data for compound 19 from various toxicity tests well known to those of ordinary skill."}, "[21]": {"molecular_target": "CYP450 2C8 (Homo sapiens, UniProt P10632)", "assay": "CYP450 inhibition, 2C8", "format": "in vitro ADME", "from_the_text": "as §3"}, "[22]": {"molecular_target": "CYP450 2D6 (Homo sapiens, UniProt P10635)", "sequence (P10635 whole entry)": "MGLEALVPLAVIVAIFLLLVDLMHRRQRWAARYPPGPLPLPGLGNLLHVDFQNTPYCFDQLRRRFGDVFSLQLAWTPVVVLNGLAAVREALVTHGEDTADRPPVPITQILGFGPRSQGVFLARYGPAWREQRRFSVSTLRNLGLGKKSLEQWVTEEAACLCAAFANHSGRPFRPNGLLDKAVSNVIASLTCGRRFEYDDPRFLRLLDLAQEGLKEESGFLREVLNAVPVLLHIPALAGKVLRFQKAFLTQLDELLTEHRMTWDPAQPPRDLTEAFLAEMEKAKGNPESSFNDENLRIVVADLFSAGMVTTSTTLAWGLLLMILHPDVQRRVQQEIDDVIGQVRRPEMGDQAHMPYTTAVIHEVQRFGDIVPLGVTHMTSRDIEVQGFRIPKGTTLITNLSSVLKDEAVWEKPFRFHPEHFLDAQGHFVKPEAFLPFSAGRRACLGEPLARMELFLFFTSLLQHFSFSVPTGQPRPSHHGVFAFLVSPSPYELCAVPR", "assay": "CYP450 inhibition, 2D6", "format": "in vitro ADME", "from_the_text": "as §3"}}}
{"smiles": "Cc1cc2c(F)c(Oc3ncnc(Nc4ccc(N5C[C@@H](C)N[C@@H](C)C5)cc4)c3C#N)cc(F)c2[nH]1", "note": "[Compound 19]", "values": [{"measurement": "GI50", "setting": "[1]; Homo sapiens, KG-1a, 72 hr", "result": 0.2, "unit": "nM"}, {"measurement": "Anti-proliferation activity in KG1a (in words)", "setting": "[1]; proliferation assay of Example 2", "result": "especially effective"}, {"measurement": "GI50", "setting": "[2]", "result": 79, "unit": "nM"}, {"measurement": "GI50", "setting": "[3]", "result": 66, "unit": "nM"}, {"measurement": "BWC (%)", "setting": "[4]; 5 mg/kg, Qdx10, IP", "result": "−4.1", "unit": "%"}, {"measurement": "T/C (%) (day14)", "setting": "[4]; 5 mg/kg, Qdx10, IP", "result": "−69.7", "unit": "%"}, {"measurement": "BWC (%)", "setting": "[4]; 10 mg/kg, Qdx10, IP", "result": "−6.3", "unit": "%"}, {"measurement": "T/C (%) (day14)", "setting": "[4]; 10 mg/kg, Qdx10, IP", "result": "−83.7", "unit": "%"}, {"measurement": "BWC (%) (d7)", "setting": "[4]; 20 mg/kg, Qdx10, IP, d7", "result": "−26.2", "unit": "%"}, {"measurement": "T/C (%) (day7)", "setting": "[4]; 20 mg/kg, Qdx10, IP, day7", "result": "−68.7", "unit": "%"}, {"measurement": "Weight loss in dose-response study (FIGS. 4 and 5)", "setting": "[4]; highest dose, 20 mg/kg", "result": "significant weight loss"}, {"measurement": "IC50", "setting": "[5]", "result": 134, "unit": "nM"}, {"measurement": "IC50", "setting": "[6]", "result": 11, "unit": "nM"}, {"measurement": "IC50", "setting": "[7]", "result": "> 1000", "unit": "nM"}, {"measurement": "IC50", "setting": "[8]", "result": "> 1000", "unit": "nM"}, {"measurement": "IC50", "setting": "[9]", "result": "> 1000", "unit": "nM"}, {"measurement": "IC50", "setting": "[10]", "result": "> 1000", "unit": "nM"}, {"measurement": "IC50", "setting": "[11]", "result": "> 1000", "unit": "nM"}, {"measurement": "IC50", "setting": "[12]", "result": "> 1000", "unit": "nM"}, {"measurement": "IC50", "setting": "[13]", "result": "> 1000", "unit": "nM"}, {"measurement": "IC50", "setting": "[14]", "result": "> 1000", "unit": "nM"}, {"measurement": "IC50", "setting": "[15]", "result": 11.4, "unit": "nM"}, {"measurement": "IC50", "setting": "[16]", "result": 32.6, "unit": "nM"}, {"measurement": "half-life", "setting": "[17]", "result": "> 1", "unit": "h"}, {"measurement": "half-life", "setting": "[18]", "result": "> 1", "unit": "h"}, {"measurement": "half-life", "setting": "[19]", "result": "> 1", "unit": "h"}, {"measurement": "IC50", "setting": "[20]", "result": "> 30000", "unit": "nM"}, {"measurement": "IC50", "setting": "[21]", "result": 10600, "unit": "nM"}, {"measurement": "IC50", "setting": "[22]", "result": "> 100000", "unit": "nM"}]}
